Patent publication US12071414B2, “Apelin receptor agonists and methods of use thereof” (Sanford Burnham Prebys Medical Discovery Institute, priority 2015, dated 2024)

Biological target: T1, human apelin receptor (APJ, AGTRL-one, APLNR) (Homo sapiens, UniProt P35414)
T1 construct: host or cells: Chinese hamster ovary cells, stably integrated receptor
T1 sequence (P35414 1-380): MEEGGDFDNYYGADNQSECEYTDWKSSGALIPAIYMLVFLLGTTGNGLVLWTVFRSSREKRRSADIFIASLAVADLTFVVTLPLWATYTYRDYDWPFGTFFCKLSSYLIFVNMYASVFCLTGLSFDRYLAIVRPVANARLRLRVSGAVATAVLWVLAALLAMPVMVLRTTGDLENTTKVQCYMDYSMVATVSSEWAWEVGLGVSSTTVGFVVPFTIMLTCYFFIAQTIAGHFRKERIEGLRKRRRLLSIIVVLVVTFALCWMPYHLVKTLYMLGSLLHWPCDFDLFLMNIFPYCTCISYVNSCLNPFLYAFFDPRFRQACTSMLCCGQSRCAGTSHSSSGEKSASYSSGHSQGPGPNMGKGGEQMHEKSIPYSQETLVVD
Experiment: cell-based cAMP TR-FRET assay of apelin receptor activation
Details: CHO cells expressing human APJ, forskolin-stimulated cAMP, 0.5 h incubation, 50% of control (apelin-13, 1 nM) response; read-out: Potency Category (EC50)
Method: The assays disclosed herein were performed using cell lines from DiscoveX, Inc. Biological activity was determined to the cell—based assay. This assay detects activation of the receptor by reporting on intracellular cyclic adenosine monophosphate (cAMP) level. Chinese hamster ovary cells engineered to express the stably integrated human apelin receptor (APJ, AGTRL—one, APLNR), pleaded into the wells of the microtiter plate. Cells were stimulated with […] to increase intracellular cyclic AMP. Immediately following, compounds were added to the range of final concentrations 0.0-100 μM, in DMSO (not to exceed a final DMSO concentration greater than 1% ν/ν), and allowed to incubate with the cells for 0.5 h. At the end of the incubation, cells were lysed to stop APJ signaling and cAMP was quantified using a commercially available competitive immunoassay kit that applies homogenous time—resolved florescence energy transfer (TR—FRET). The assay is based on the competition between a europium (Eu) chelate—labeled cAMP donor tracer and cellular cAMP for binding sites on a cAMP—specific monoclonal antibody labeled with an acceptor fluorophore. When antibodies are bound to the cAMP tracer light emissions at 320 nm stimulate the energy transfer from the donor to the acceptor, which in turn emits light at 665 nm. In the presence of competitive unlabeled cAMP (derived from the activity of the receptor or forskolin-stimulated production of cAMP), the labelled cAMP tracer is dissociated from the cAMP antibody, resulting in a loss of FRET signal. The amount of light emitted by the FRET is inversely proportional to the cAMP generated by the cell/receptor system. Potency and efficacy at APJ are reported in reference to the canonical APJ receptor agonist apelin—13 when tested at 1 nM. […] Compound efficacy (% response) is reported as a percentage of the maximal apein-13 response at 1 nM (control). Potencies were calculated by fitting a […] logistic curve to concentration response consisting of at least 10 discrete data points spanning effective range of the compounds in the cell-based assay that measures cAMP. […] Category B is 200-500 nM; Category C is 100-200 nM; Category D is 50-100 nM; and Category E is <50 nM.

EC50 [nM] | SMILES
> 500 | CCS(=O)(=O)c1ccc(C(CC2CC2)C(=O)Nc2nc3cc(OC)c(OC)cc3s2)cc1 (stereo not shown)
> 500 | CCS(=O)(=O)c1ccc(C(Cc2ccccc2)C(=O)Nc2nc3cc(OC)c(OC)cc3s2)cc1 (stereo not shown)
> 500 | COc1cc2nc(NC(=O)Cc3ccccc3C(=O)N(C)C)sc2cc1OC
200 to 500 | COc1cc2nc(NC(=O)C(Oc3ccc(C(=O)NCCN4CCCC4)cc3)c3ccc(C#N)cc3)sc2cc1OC (stereo not shown)
200 to 500 | COc1cc2nc(NC(=O)C(Oc3ccc(C#N)cc3)c3ccc(OCCN4CCOCC4)cc3)sc2cc1OC (stereo not shown)
200 to 500 | COc1cc2nc(NC(=O)C(Oc3ccc(C#N)cc3)c3ccc(OCCN4CCCCC4)cc3)sc2cc1OC (stereo not shown)
200 to 500 | COc1cc2nc(NC(=O)C(Oc3ccc(C#N)cc3)c3ccc(OCCN4CCCC4)cc3)sc2cc1OC (stereo not shown)
200 to 500 | COc1cc2nc(NC(=O)C(Oc3ccc(C#N)cc3)c3ccc(C(=O)NCCN4CCOCC4)cc3)oc2cc1OC (stereo not shown)
100 to 200 | CCS(=O)(=O)c1ccc(C(Oc2ccc(Cl)cc2)C(=O)Nc2nc3cc(OC)c(OC)cc3s2)cc1 (stereo not shown)
100 to 200 | COc1ccc(S(=O)(=O)c2ccccc2C(Oc2ccc(C#N)cc2)C(=O)Nc2nc3cc(OC)c(OC)cc3s2)cc1 (stereo not shown)
100 to 200 | CCS(=O)(=O)c1ccc(C(Oc2ccc(C#N)cc2C(F)(F)F)C(=O)Nc2nc3cc(OC)c(OC)cc3s2)cc1 (stereo not shown)
100 to 200 | COc1cc2nc(NC(=O)C(Oc3ccc(C#N)cc3)c3ccccc3S(=O)(=O)C(C)C)sc2cc1OC (stereo not shown)
100 to 200 | COc1cc2nc(NC(=O)C(Oc3ccc(C#N)cc3)c3ccc(S(=O)(=O)c4ccc(F)cc4)cc3)sc2cc1OC (stereo not shown)
100 to 200 | COc1ccc(S(=O)(=O)c2ccc(C(Oc3ccc(C#N)cc3)C(=O)Nc3nc4cc(OC)c(OC)cc4s3)cc2)cc1 (stereo not shown)
100 to 200 | COC(=O)c1ccc(C(Oc2ccc(C#N)cc2)C(=O)Nc2nc3cc(OC)c(OC)cc3s2)cc1 (stereo not shown)
100 to 200 | CCS(=O)(=O)c1ccc([C@@H](Oc2ccc(C#N)cc2)C(=O)Nc2nc3cc(OC)c(OC)cc3s2)cc1
100 to 200 | COc1cc2nc(NC(=O)C(Oc3ccc(C#N)cc3)c3ccc(Cl)cc3)sc2cc1OC (stereo not shown)

EC50 [nM] | SMILES
100 to 200 | COc1cc2nc(NC(=O)C(Oc3ccc(C#N)cc3)c3ccccc3)sc2cc1OC (stereo not shown)
100 to 200 | C#Cc1ccc(OC(C(=O)Nc2nc3cc(OC)c(OC)cc3s2)c2ccc(S(=O)(=O)CC)cc2)cc1 (stereo not shown)
100 to 200 | COc1cc2nc(NC(=O)C(Oc3ccc(C#N)cc3)c3ccc(C(=O)NCCN4CCOCC4)cc3)sc2cc1OC (stereo not shown)
100 to 200 | COc1cc2nc(NC(=O)C(Oc3ccc(OCCN(C)C)cc3)c3ccc(C#N)cc3)sc2cc1OC (stereo not shown)
50 to 100 | CCS(=O)(=O)c1ccc(C(Oc2ccc(C#N)cc2)C(=O)Nc2nc3ccc4c(c3s2)OCCO4)cc1 (stereo not shown)
50 to 100 | CCS(=O)(=O)c1ccc(C(Oc2ccc(C#N)cc2)C(=O)Nc2nc3c(OC)ccc(OC)c3s2)cc1 (stereo not shown)
50 to 100 | CCS(=O)(=O)c1ccc(C(Oc2ccc(C#N)c(C)c2)C(=O)Nc2nc3cc(OC)c(OC)cc3s2)cc1 (stereo not shown)
50 to 100 | CCS(=O)(=O)c1ccc(C(Oc2ccc(C#N)cc2)C(=O)Nc2nc3ccc(OC)c(OC)c3s2)cc1 (stereo not shown)
50 to 100 | CCCCS(=O)(=O)c1cccc(C(Oc2ccc(C#N)cc2)C(=O)Nc2nc3cc(OC)c(OC)cc3s2)c1 (stereo not shown)
50 to 100 | COc1cc2nc(NC(=O)C(Oc3ccc(C#N)cc3)c3cccc(S(=O)(=O)C(C)(C)C)c3)sc2cc1OC (stereo not shown)
50 to 100 | COc1cc2nc(NC(=O)C(Oc3ccc(C#N)cc3)c3ccc(C)cc3)sc2cc1OC (stereo not shown)
50 to 100 | CCS(=O)(=O)c1ccc(C(Oc2ccc(C#N)cc2)C(=O)N(C)c2nc3cc(OC)c(OC)cc3s2)cc1 (stereo not shown)
50 to 100 | CCS(=O)(=O)c1ccc(C(Oc2ccc(C#N)cc2)C(=O)Nc2nc3ccc(C)c(OC)c3s2)cc1 (stereo not shown)
50 to 100 | COCCNC(=O)c1ccc(C(Oc2ccc(C#N)cc2)C(=O)Nc2nc3cc(OC)c(OC)cc3s2)cc1 (stereo not shown)
50 to 100 | COc1cc2nc(NC(=O)C(Oc3ccc(C#N)cc3)c3ccc(C(=O)NCCO)cc3)sc2cc1OC (stereo not shown)
50 to 100 | COc1cc2nc(NC(=O)C(Oc3ccc(C#N)cc3)c3ccc(C(=O)NCCN(C)C)cc3)sc2cc1OC (stereo not shown)
50 to 100 | COc1cc2nc(NC(=O)C(Oc3ccc(C(=O)N4CCN(C)CC4)cc3)c3ccc(C#N)cc3)sc2cc1OC (stereo not shown)
